Laboratory results: ChEMBL document CHEMBL1145401, “Design and synthesis of classical and nonclassical 6-arylthio-2,4-diamino-5-ethylpyrrolo[2,3-d]pyrimidines as antifolates” (J Med Chem, 2007)

Key:
CCRF-CEM [1] = test: Effect on growth of human CCRF-CEM cells at 5000 nM in presence of 10 uM deoxycytidine, 5 uM thymidine relative to control; format: functional
SF-295 = test: Cytotoxicity against SF295 cells; format: functional; conditions: Homo sapiens
SN12C = test: Cytotoxicity against SN12C cells; format: functional; conditions: Homo sapiens
CCRF-CEM [2] = test: cells; conditions: Homo sapiens
CCRF-CEM [3] = test: Growth inhibition of human CCRF-CEM cells
MDA-MB-435 = test: Cytotoxicity against MDA-MB-435 cells; format: functional; conditions: Homo sapiens
SF-539 = test: Cytotoxicity against SF539 cells; format: functional; conditions: Homo sapiens
HCT-116 = test: Cytotoxicity against HCT116 cells; format: functional; conditions: Homo sapiens
CCRF-CEM [4] = test: Effect on growth of human CCRF-CEM cells at 5000 nM in presence of 10 uM deoxycytidine relative to control; format: functional
HT-29 = test: Cytotoxicity against HT29 cells; format: functional; conditions: Homo sapiens
PC-3 = test: Cytotoxicity against PC3 cells; format: functional; conditions: Homo sapiens
CCRF-CEM [5] = test: cells; conditions: Homo sapiens; remark: listed apart in the source
CCRF-CEM [6] = test: Effect on growth of human CCRF-CEM cells at 5000 nM in presence of 10 uM deoxycytidine, 5 uM thymidine and 10 uM hypoxanthine relative to control; format: functional
LOX IMVI = test: Cytotoxicity against LOX IMVI cells; format: functional; conditions: Homo sapiens
CCRF-CEM [7] = test: cells; conditions: Homo sapiens; remark: listed apart in the source
DU-145 = test: Cytotoxicity against DU145 cells; format: functional; conditions: Homo sapiens
MCF7 = test: Cytotoxicity against MCF7 cells; format: functional; conditions: Homo sapiens
UO-31 = test: Cytotoxicity against UO31 cells; format: functional; conditions: Homo sapiens
NCI-H460 = test: Cytotoxicity against NCI-H460 cells; format: functional; conditions: Homo sapiens
UACC-62 = test: Cytotoxicity against UACC62 cells; format: functional; conditions: Homo sapiens
Dihydrofolate reductase = Dihydrofolate reductase (Homo sapiens, UniProt P00374)
CCRF-CEM [8] = test: Effect on growth of human CCRF-CEM cells at 5000 nM in presence of 10 uM deoxycytidine, 10 uM hypoxanthine relative to control; format: functional
SF-268 = test: Cytotoxicity against SF268 cells; format: functional; conditions: Homo sapiens
SR = test: Cytotoxicity against SR cells; format: functional; conditions: Homo sapiens
ACHN = test: Cytotoxicity against ACHN cells; format: functional; conditions: Homo sapiens
K562 = test: Cytotoxicity against K562 cells; format: functional; conditions: Homo sapiens
CAKI-1 = test: Cytotoxicity against CAKI1 cells; format: functional; conditions: Homo sapiens
MOLT-4 = test: Cytotoxicity against MOLT4 cells; format: functional; conditions: Homo sapiens
OVCAR-8 = test: Cytotoxicity against OVCAR8 cells; format: functional; conditions: Homo sapiens
U-251 = test: Cytotoxicity against U251 cells; format: functional; conditions: Homo sapiens
KM12 = test: Cytotoxicity against KM12 cells; format: functional; conditions: Homo sapiens
SW-620 = test: Cytotoxicity against SW620 cells; format: functional; conditions: Homo sapiens
CCRF-CEM [9] = test: Cytotoxicity against CCRF-CEM cells; format: functional; conditions: Homo sapiens

With `CCc1c(Sc2ccc(C(=O)N[C@@H](CCC(=O)O)C(=O)O)cc2)[nH]c2nc(N)nc(N)c12` the Activity (CCRF-CEM [1]) was 15%, the GI50 (SF-295) was 660 nM and the GI50 (SN12C) was 600 nM. The EC50 (CCRF-CEM [2]) was 6700 nM, the EC50 (CCRF-CEM [3]) was 68 nM and the GI50 (MDA-MB-435) was 660 nM. It also gave a GI50 (SF-539) of 240 nM, a GI50 (HCT-116) of 23 nM and an Activity (CCRF-CEM [4]) of 12%. The GI50 (HT-29) was 98 nM, the GI50 (PC-3) was 400 nM and the EC50 (CCRF-CEM [5]) was 200 nM. For the same compound, the Activity (CCRF-CEM [6]) was 74%, the GI50 (LOX IMVI) was 44 nM and the EC50 (CCRF-CEM [7]) was 5700 nM. The GI50 (DU-145) was 370 nM, the GI50 (MCF7) was 170 nM and the GI50 (UO-31) was 300 nM. For the same compound, the GI50 (NCI-H460) was 180 nM, the GI50 (UACC-62) was 880 nM and the IC50 (Dihydrofolate reductase) was 66 nM. The Activity (CCRF-CEM [8]) was 12%, the GI50 (SF-268) was 430 nM and the GI50 (SR) was < 10 nM. For the same compound, the GI50 (ACHN) was 440 nM, the GI50 (K562) was 12 nM and the GI50 (CAKI-1) was 170 nM. For the same compound, the GI50 (MOLT-4) was 480 nM, the GI50 (OVCAR-8) was 740 nM and the GI50 (U-251) was 530 nM. The GI50 (KM12) was 56 nM, the GI50 (SW-620) was 26 nM and the GI50 (CCRF-CEM [9]) was 17 nM.
